US9561228B2 (Celgene Avilomics Research, Inc., priority 2013, dated 2017)

Experiments:
[1] = tested on: HT-29 cells (colorectal adenocarcinoma); assay: Inhibition of cancer cell proliferation, HT-29 (CellTiterGlo, 72 hours); type: cell-based; settings: Homo sapiens
Method in brief: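 HT-29 cells seeded at 3000/well, then treated with 3-fold serial dilutions from a 5,000 nM two-fold solution in serum-free RPMI1640, untreated wells as control, for 72 h at 37° C. CellTiterGlo luminescence converted to cell number via a standard curve; GI50 from percent inhibition versus untreated growth.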

[2] = tested on: A375 cells (malignant melanoma); assay: Inhibition of cancer cell proliferation, A375 (CellTiterGlo, 72 hours); type: cell-based; settings: Homo sapiens, A-375
Method: Measurement of Inhibition of Cancer Cell Proliferation (A375/Malignant Melanoma)
The following protocol used an A375 cell line, which cell line is a model for malignant melanoma. A375 cells were split and 3000 cells in […] of growth medium were added per well of a flat-bottom 96-well plate. A two-fold test compound solution in serum-free DMEM was made, starting at 5,000 nM. Then, 3-fold serial dilutions were made across the plate from well 1 to well 11. Well 12, the last well in a row on the plate, was left as untreated control. 100 μl compound solutions were then transferred to the wells, so the total volume of media was 200 μl per well. Plates were returned to a 37° C. incubator, and the cells were cultured for 72 hours. To measure cell proliferation after 72 hours, media was discarded from the plates, 50 μl/well of fresh medium was added, and 50 μl CellTiterGlo solution was added (Promega Cat#G7573). The plate was covered with a dark lid and incubated for 10 min. A white sealing tape was applied to the bottom of the plate, and the plate was read in a luminescence plate reader. […] 50 μl CellTiterGlo was added per well, and the plate was read in a luminescence plate reader after 10 min. The reading was plotted vs. cell number to generate a standard curve and the equation of the curve fit. The compound-treated sample luminescence readings were converted to cell numbers using the curve-fit equation. The percent of inhibition, using untreated control as 100% growth, was then calculated. GI50 was then calculated by GraphPad Prism.

[3] = tested on: ERK1/2 phosphorylation of p90RSK in HT29 cells; assay: pRSK MSD Assay in HT29 cells; type: cell-based; settings: Homo sapiens, HT-29, read-out: ERK1/ERK2 PRSK MSD HT29 EC50
Method in brief: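 Serum-starved HT29 cells (0.1% FBS overnight) treated with test compound for 120 min at 37° C, then lysed with protease and phosphatase inhibitors. Phospho-p90RSK quantified by MSD sandwich immunoassay: RSK capture antibody, phospho-RSK detection antibody plus Sulfo-tagged antibody, electrochemiluminescence read.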

MEK1 activated ERK1 = target: T1, MEK1 activated ERK1 (Homo sapiens, UniProt P27361); assay: Omnia continuous-read kinase assay for potency against MEK1 activated ERK1; type: biochemical; settings: MEK1 activated ERK1, ATP at KM; read-out: ERK1 Omnia WT ATP KM IC50
T1 construct: purchased Millipore (Billerica, Mass.) 14-439-K
Method in brief: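 Apparent IC50 came from initial reaction slopes (RFU vs time) plotted against log inhibitor with a variable-slope fit. Reactions were started with ERK1 (4 nM final) added to 50 μM ATP, roughly at its appKM, and 10 μM Sox-conjugated ST17 peptide in 20 mM Tris pH 7.5, 5 mM MgCl2. Fluorescence was monitored every 71 seconds.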

T1 sequence (P27361 whole entry): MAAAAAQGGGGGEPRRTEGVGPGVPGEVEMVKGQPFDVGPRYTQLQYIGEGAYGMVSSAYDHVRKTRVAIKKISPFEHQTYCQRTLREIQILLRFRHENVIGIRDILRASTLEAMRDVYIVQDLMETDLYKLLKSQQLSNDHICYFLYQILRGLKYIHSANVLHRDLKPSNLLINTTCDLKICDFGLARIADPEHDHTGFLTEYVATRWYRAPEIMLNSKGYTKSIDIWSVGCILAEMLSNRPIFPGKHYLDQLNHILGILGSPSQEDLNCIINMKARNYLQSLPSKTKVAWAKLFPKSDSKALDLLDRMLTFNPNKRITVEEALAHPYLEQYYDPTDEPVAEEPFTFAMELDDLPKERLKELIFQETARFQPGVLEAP

Row | GI50 [1] [nM] | GI50 [2] [nM] | EC50 [3] [nM] | IC50 (MEK1 activated ERK1) [nM] | SMILES
1 | > 1000 | > 1000 | 101 to 500 | – | C=CC(=O)Nc1cc(C)ccc1Nc1nc(N[C@H]2CCCN(C(=O)CN)C2)ncc1C(F)(F)F [Compound I-42, (S)—N-(2-((2-((1-(2-Aminoacetyl)piperidin-3-yl)amino)-5-(trifluoromethyl)pyrimidin-4-yl)amino)-5-methylphenyl)acrylamide]
2 | 101 to 500 | > 1000 | > 1000 | – | CN(C)CCC(=O)Nc1ccccc1Nc1nc(N[C@H]2CCCN(C(=O)CO)C2)ncc1C(F)(F)F [Compound I-276, (S)-3-(dimethylamino)-N-(2-((2-((1-(2-hydroxyacetyl)piperidin-3-yl)amino)-5-(trifluoromethyl)pyrimidin-4-yl)amino)phenyl)propanamide]
3 | 101 to 500 | 101 to 500 | 101 to 500 | – | C=CC(=O)Nc1ccccc1Nc1nc(N[C@H]2CCCN(C(N)=O)C2)ncc1C(F)(F)F [Compound I-18, (S)-3-((4-((2-Acrylamidophenyl)amino)-5-(trifluoromethyl)pyrimidin-2-yl)amino)piperidine-1-carboxamide]
4 | < 100 | < 100 | 101 to 500 | 101 to 500 | C=CC(=O)Nc1ccccc1Nc1nc(Nc2cc(C(=O)NCCO)c(F)cc2C)ncc1C(F)(F)F [Compound I-81, 5-((4-((2-Acrylamidophenyl)amino)-5-(trifluoromethyl)pyrimidin-2-yl)amino)-2-fluoro-N-(2-hydroxyethyl)-4-methylbenzamide]
5 | 501 to 999 | 101 to 500 | > 1000 | 101 to 500 | O=C(CCCl)Nc1ccccc1Nc1nc(N[C@H]2CCCN(C(=O)CO)C2)ncc1C(F)(F)F [Compound I-22, (S)-3-Chloro-N-(2-((2-((1-(2-hydroxyacetyl)piperidin-3-yl)amino)-5-(trifluoromethyl)pyrimidin-4-yl)amino)phenyl)propanamide]
6 | < 100 | < 100 | 501 to 999 | – | CC(C)S(=O)(=O)c1ccccc1Nc1nc(N[C@H]2CCCN(C(=O)CO)C2)ncc1C(F)(F)F [Compound I-310, (S)-2-hydroxy-1-(3-((4-((2-(isopropylsulfonyl)phenyl)amino)-5-(trifluoromethyl)pyrimidin-2-yl)amino)piperidin-1-yl)ethanone]
7 | 501 to 999 | 501 to 999 | 501 to 999 | – | C=C(C)S(=O)(=O)Nc1ccccc1Nc1nc(N[C@H]2CCCN(C(=O)CO)C2)ncc1C(F)(F)F [Compound I-46, (S)—N-(2-((2-((1-(2-Hydroxyacetyl)piperidin-3-yl)amino)-5-(trifluoromethyl)pyrimidin-4-yl)amino)phenyl)prop-1-ene-2-sulfonamide]
8 | < 100 | < 100 | > 1000 | – | CCC(=O)Nc1ccccc1Nc1nc(N[C@H]2CCCN(C(C)=O)C2)ncc1C(F)(F)F [Compound I-317, (S)—N-(2-((2-((1-acetylpiperidin-3-yl)amino)-5-(trifluoromethyl)pyrimidin-4-yl)amino)phenyl)propionamide]
9 | 101 to 500 | 101 to 500 | 101 to 500 | 101 to 500 | C=CC(=O)Nc1cc(C)ccc1Nc1nc(Nc2cc(C(=O)NCCO)c(F)cc2C)ncc1Cl [Compound I-234, 5-((4-((2-acrylamido-4-methylphenyl)amino)-5-chloropyrimidin-2-yl)amino)-2-fluoro-N-(2-hydroxyethyl)-4-methylbenzamide]
10 | > 1000 | > 1000 | – | – | C/C=C/S(=O)(=O)Nc1cc(F)ccc1Nc1nc(N[C@H]2CCCN(C(=O)CO)C2)ncc1C(F)(F)F [Compound I-48, (S,E)-N-(5-Fluoro-2-((2-((1-(2-hydroxyacetyl)piperidin-3-yl)amino)-5-(trifluoromethyl)pyrimidin-4-yl)amino)phenyl)prop-1-ene-1-sulfonamide]
11 | < 100 | 101 to 500 | – | – | C=CC(=O)Nc1ccccc1Nc1nc(NC2CCC(=O)CC2)ncc1C(F)(F)F [Compound I-23, N-(2-((2-((4-Oxocyclohexyl)amino)-5-(trifluoromethyl)pyrimidin-4-yl)amino)phenyl)acrylamide]
12 | < 100 | < 100 | 101 to 500 | – | C=CC(=O)Nc1cc(C)ccc1Nc1nc(Nc2cc(C(N)=O)ccc2C)ncc1Cl [Compound I-229, 3-((4-((2-acrylamido-4-methylphenyl)amino)-5-chloropyrimidin-2-yl)amino)-4-methylbenzamide]
13 | < 100 | < 100 | < 100 | – | C=CC(=O)Nc1ccc(C)cc1Nc1nc(N[C@H]2CCCN(C(=O)CO)C2)ncc1C(F)(F)F [Compound I-37, (S)—N-(2-((2-((1-(2-hydroxyacetyl)piperidin-3-yl)amino)-5-(trifluoromethyl)pyrimidin-4-yl)amino)-4-methylphenyl)acrylamide]
14 | 101 to 500 | < 100 | 101 to 500 | – | C=C(C)S(=O)(=O)Nc1cc(C)ccc1Nc1nc(N[C@H]2CCCN(C(=O)CO)C2)ncc1C(F)(F)F [Compound I-47, (S)—N-(2-((2-((1-(2-Hydroxyacetyl)piperidin-3-yl)amino)-5-(trifluoromethyl)pyrimidin-4-yl)amino)-5-methylphenyl)prop-1-ene-2-sulfonamide]
15 | < 100 | < 100 | 101 to 500 | – | C=CC(=O)Nc1ccccc1Nc1nc(N[C@H]2CCCN(C(=O)[C@@H](C)O)C2)ncc1Cl [Compound I-134, N-(2-((5-chloro-2-(((S)-1-((R)-2-hydroxypropanoyl)piperidin-3-yl)amino)pyrimidin-4-yl)amino)phenyl)acrylamide]
16 | < 100 | < 100 | 101 to 500 | – | C=CC(=O)Nc1ccccc1Nc1nc(Nc2cc(C(=O)NOC)ccc2C)ncc1Cl [Compound I-191, 3-((4-((2-acrylamidophenyl)amino)-5-chloropyrimidin-2-yl)amino)-N-methoxy-4-methylbenzamide]
17 | 101 to 500 | < 100 | > 1000 | – | NC(=O)c1ccccc1Nc1nc(N[C@H]2CCCN(C(=O)CO)C2)ncc1C(F)(F)F [Compound I-307, (S)-2-((2-((1-(2-hydroxyacetyl)piperidin-3-yl)amino)-5-(trifluoromethyl)pyrimidin-4-yl)amino)benzamide]
18 | 501 to 999 | 101 to 500 | > 1000 | – | C=CC(=O)Nc1cc(C)ccc1Nc1nc(NC2CCC(=O)CC2)ncc1C(F)(F)F [Compound I-38, N-(5-Methyl-2-((2-((4-oxocyclohexyl)amino)-5-(trifluoromethyl)pyrimidin-4-yl)amino)phenyl)acrylamide]
19 | < 100 | < 100 | < 100 | – | C=CC(=O)Nc1ccccc1Nc1nc(Nc2cc(C(N)=O)ccc2OC)ncc1C(F)(F)F [Compound I-70, 3-((4-((2-Acrylamidophenyl)amino)-5-(trifluoromethyl)pyrimidin-2-yl)amino)-4-methoxybenzamide]
20 | 101 to 500 | < 100 | 501 to 999 | – | CCC(=O)Nc1ccccc1Nc1nc(N[C@H]2CCCN(C(=O)CO)C2)ncc1C(F)(F)F [Compound I-318, (S)—N-(2-((2-((1-(2-hydroxyacetyl)piperidin-3-yl)amino)-5-(trifluoromethyl)pyrimidin-4-yl)amino)phenyl)propionamide]
21 | < 100 | 101 to 500 | – | – | C=CC(=O)Nc1ccccc1Nc1nc(NC2CCOCC2)ncc1Cl [Compound I-108, N-(2-((5-chloro-2-((tetrahydro-2H-pyran-4-yl)amino)pyrimidin-4-yl)amino)phenyl)acrylamide]
22 | < 100 | < 100 | < 100 | – | C=CC(=O)Nc1ccccc1Nc1nc(N[C@H]2CCCN(C(=O)CC)C2)ncc1Cl [Compound I-131, (S)—N-(2-((5-chloro-2-((1-propionylpiperidin-3-yl)amino)pyrimidin-4-yl)amino)phenyl)acrylamide]
23 | < 100 | < 100 | – | – | C=CC(=O)Nc1cc(C)ccc1Nc1nc(N[C@H]2CCCN(C(=O)CC)C2)ncc1C(F)(F)F [Compound I-41, (S)—N-(5-Methyl-2-((2-((1-propionylpiperidin-3-yl)amino)-5-(trifluoromethyl)pyrimidin-4-yl)amino)phenyl)acrylamide]
